Results taken from patent US20090221647A1, “N-(2-THIAZOLYL)-AMIDE DERIVATIVES AS GSK-3 INHIBITORS” (NOSCIRA, S.A., priority 2006, published 2009).

Assays:
[1] = molecular target: T1, Recombinant human glycogen synthase kinase 3β (Homo sapiens, UniProt P49841); assay: GSK-3β inhibition (radiometric 33P-ATP, GS-2 peptide substrate); type: biochemical; conditions: remaining GSK-3 activity
T1 construct: purchased Upstate 14-306
Description: This assay is based on the protocol detailed by Upstate Cat. 14-306, making some slight modifications.
Recombinant human glycogen synthase kinase 3β is assayed in MOPS 11 mM pH7.4, EDTA 0.2 mM, EGTA 1.25 mM, MgCl2 26.25 mM and sodium orthovanadate 0.25 mM in the presence of 62.5 μM of Phospho-Glycogen Synthase Peptide-2 (GS-2) (TOCRIS, Cat. 1352), 0.5 μCi γ-^33P-ATP and unlabelled ATP (Sigma, A-9187) at a final concentration of 12.5 μM. After incubation for 30 minutes at 30° C., aliquots are spotted onto P81 phosphocellulose papers. Filters are washed four times for at least 10 minutes each with 1% phosphoric acid and counted with scintillation cocktail in a scintillation counter (PerkinElmer, Microbeta 1450). The activity of GSK-3 is tested at concentrations of 25 and 50 μM, in the presence of the compound synthesized according to example 1 and in the presence of another 6 compounds of formula (I). The results obtained are indicated in Table I (see below), in the form of percentage of GSK-3 activity.

[2] = tested on: phosphorylated human Tau [pS396] in SHSY5Y cells; assay: Inhibition of tau phosphorylation in SHSY5Y cells (Tau [pS396] sandwich ELISA); type: cell-based; parameters: key: “NEG” means no tau phosphorylation inhibition was detected at the referred concentration of compound (I); “POS” means that at the referred concentration tau phosphorylation inhibition was detected; conditions: 18 h
Description: Human neuroblastoma SHSY5Y cells were seeded in the presence of Minimum Essential Medium/Nutrient Mixture F-12. One day later, cells are treated with samples for 18 h at 37° C. After treatment, cultures are washed with phosphate-buffered saline and lysed for 30 min at 4° C. in extraction buffer (10 mM Tris-HCl, pH 7.4, 100 mM NaCl, 1 mM EDTA, 2 mM Na3VO4, 1% Triton X-100, 10% glycerol, 0.1% SDS, 0.5% Sodium deoxycholate, 1 mM PMSF and a protease inhibitor cocktail (Roche, Cat 1 697 498)).
The quantitative determination of phosphorylated human Tau is made taking aliquots of the cell lysate and using a phosphorylation-specific antibody against Tau [pS396] in a sandwich ELISA (Biosource, Cat KHB7031). Tau phosphorylation is estimated by measuring the absorbance at 450 nm in a microtiter plate reader (Cultek, Anthos 2010).
The effect of the synthesized compound according to example 1 and that of another 6 compounds of formula (I) is determined at different final concentrations, namely 50, 100 and 200 μM. Not all the compounds of formula (I) were tested at all the concentrations. The results are indicated in Table 1 (see below) as “NEG” and “POS”, respectively meaning “negative” and “positive”; “NEG” means no tau phosphorylation inhibition was detected at the referred concentration of compound (I); “POS” means that at the referred concentration tau phosphorylation inhibition was detected.

SH-SY5Y cells = assay: Cell survival by LDH release in SH-SY5Y cells; type: cell-based
Description: In addition to tau phosphorylation assays, quantification of cell death due to potential toxicity of compounds 1 and 3 described above is made by measuring LDH release (Roche, Cat 1 644 793). For the quantitative determination of cell survival, aliquots of the cell lysate are incubated with an equal volume of reaction mixture at room temperature for 20-30 min. The measure of absorbance is made in a microtiter plate reader with 490-492 nm filter (Cultek, Anthos 2010).
For compounds 1 and 3, the cell survival was measured at 24 hours treatment (see Table 2), and for compound 2 was measured at 18 hours treatment (see Table 3), in SH-SY5Y cells. It is generally considered that a compound is considered toxic if less than 80% of the cells survive after treatment with a compound.

T1 sequence (P49841 whole entry): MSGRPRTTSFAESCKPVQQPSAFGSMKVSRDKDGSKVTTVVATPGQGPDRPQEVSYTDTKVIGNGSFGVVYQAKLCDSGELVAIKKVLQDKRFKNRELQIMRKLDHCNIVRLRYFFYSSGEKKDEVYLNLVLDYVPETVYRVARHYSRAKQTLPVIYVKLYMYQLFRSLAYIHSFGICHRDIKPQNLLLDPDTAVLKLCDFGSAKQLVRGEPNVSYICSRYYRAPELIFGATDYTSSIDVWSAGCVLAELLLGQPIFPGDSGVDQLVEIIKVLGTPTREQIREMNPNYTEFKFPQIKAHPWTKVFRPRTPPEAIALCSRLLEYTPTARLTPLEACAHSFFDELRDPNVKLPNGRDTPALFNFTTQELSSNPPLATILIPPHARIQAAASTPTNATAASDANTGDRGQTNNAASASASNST

SMILES	% GSK-3 Activity ([1]; 25 μM compound)	% GSK-3 Activity ([1]; 50 μM compound)	Tau phosphorylation inhibition in cells ([2]; 50 μM compound)	Tau phosphorylation inhibition in cells ([2]; 100 μM compound)	% of cell viability (SH-SY5Y cells; 50 μM, 24 hours treatment)	% of cell viability (SH-SY5Y cells; 100 μM, 24 hours treatment)	% of cell viability (SH-SY5Y cells; 50 μM, 18 hours treatment)	% of cell viability (SH-SY5Y cells; 100 μM, 18 hours treatment)
O=C(Cc1cccnc1)Nc1ncc(Cl)s1 [Compound 4]	5.6%	13.8%	NEG	POS				
O=C(Cc1ccccn1)Nc1ncc([N+](=O)[O-])s1 [Compound 3]	9.49%	4.1%	NEG	POS	87 ± 6.0%	85.4 ± 2.7%		
O=C(CCc1cccnc1)Nc1ncc([N+](=O)[O-])s1 [Compound 2]	8.3%	5.36%	POS	POS			95.7 ± 4.2%	93.7 ± 7.1%
O=C(Nc1ncc([N+](=O)[O-])s1)c1ccccn1 [Compound 5]	76.72%	43.78%						
O=C(Cc1cccnc1)Nc1ncc([N+](=O)[O-])s1 [Compound 1, N-(5-Nitro-thiazol-2-yl)-2-pyridin-3-yl-acetamide]	5.21%	2.78%	POS	POS	94.1 ± 1.8%	86.5 ± 4.7%		

Continued, in another order:

% GSK-3 Activity ([1]; 25 μM compound)	% GSK-3 Activity ([1]; 50 μM compound)	SMILES	Tau phosphorylation inhibition in cells ([2]; 50 μM compound)	Tau phosphorylation inhibition in cells ([2]; 100 μM compound)	% of cell viability (SH-SY5Y cells; 50 μM, 24 hours treatment)	% of cell viability (SH-SY5Y cells; 100 μM, 24 hours treatment)	% of cell viability (SH-SY5Y cells; 50 μM, 18 hours treatment)	% of cell viability (SH-SY5Y cells; 100 μM, 18 hours treatment)
22.29%	50.90%	O=C(Cc1cccnc1)Nc1nccs1 [Compound 6]						
13.73%	8.05%	O=C(Cc1ccccc1)Nc1ncc([N+](=O)[O-])s1 [Compound 7]	POS	POS				
